Experimental data taken from patent US20080194646A1, “Methods For Avoiding Edema in the Treatment of Metabolic, Inflammatory, and Cardiovascular Disorders” (priority 2005, published 2008).

What was measured:
C57BL/6j ob/ob Mice [1] = test: anti-diabetic activity in C57BL/6j ob/ob mice (Example 20); format: in vivo; details: oral gavage once a day for 1-4 days; for Potency / minimal effective dose: glucose lowering, plasma glucose 6 hours after each dose; for minimal effective dose: Mus musculus, read-out: Potency
Procedure: The anti-diabetic activities of the compounds were evaluated in the C57BL/6j ob/ob Mice model. Male, 7-9 weeks old, C57BL/6J ob/ob mice were purchased from The Jackson Laboratory (Bar Harbor, Me., USA). Animals were housed (4-5 mice/cage) under standard laboratory conditions at 22±3° C. temperature and 50±20% relative humidity, and were maintained on a diet of Purina rodent chow and water ad libitum. Prior to treatment, blood was collected from the tail vein of each animal. Mice that had non-fasting plasma glucose levels between 250 and 500 mg/dl were used. Each treatment group consisted of 8-10 mice that were distributed so that the mean glucose levels were equivalent in each group at the start of the study. Mice were dosed orally by gavage once a day for 1-4 days with vehicle and one or more dose of test compound at a dose ranging from 5 to 125 mg/kg. Compounds were delivered in a liquid formulation containing 5% (v/v) dimethyl sulfoxide (DMSO), 1% (v/v) Tween 80® and 0.9% (w/v) methylcellulose. The gavage volume was 10 ml/kg. […] Food intake and body weight were measured daily. Plasma glucose concentrations were determined colorimetrically using a commercial glucose oxidase method (Sigma Chemical Co, St. Louis, Mo., USA). Significant difference between groups (comparing drug-treated to vehicle-treated) was evaluated using the Student unpaired t-test. Table 1 provides the relative potency of some selected compounds of the invention.

C57BL/6j ob/ob Mice [2] = test: anti-diabetic activity in C57BL/6j ob/ob mice (Example 13); format: in vivo; details: oral gavage once a day for 1-4 days; for Potency: glucose lowering, 5 to 125 mg/kg, plasma glucose 6 hours after each dose
Procedure: The anti-diabetic activities of the compounds were evaluated in the C57BL/6j ob/ob Mice model.
Male, 7-9 weeks old, C57BL/6J ob/ob mice were purchased from The Jackson Laboratory (Bar Harbor, Me., USA). Animals were housed (4-5 mice/cage) under standard laboratory conditions at 22±3° C. temperature and 50±20% relative humidity, and were maintained on a diet of Purina rodent chow and water ad libitum. Prior to treatment, blood was collected from the tail vein of each animal. Mice that had non-fasting plasma glucose levels between 250 and 500 mg/dl were used. Each treatment group consisted of 8-10 mice that were distributed so that the mean glucose levels were equivalent in each group at the start of the study. Mice were dosed orally by gavage once a day for 1-4 days with vehicle and one or more dose of test compound at a dose ranging from 5 to 125 mg/kg. Compounds were delivered in a liquid formulation containing 5% (v/v) dimethyl sulfoxide (DMSO), 1% (v/v) Tween 80® and 0.9% (w/v) methylcellulose. The gavage volume was 10 ml/kg. Blood samples were taken at 6 hours after the each dose and analyzed for plasma glucose. Food intake and body weight were measured daily. Plasma glucose concentrations were determined colorimetrically using a commercial glucose oxidase method (Sigma Chemical Co, St. Louis, Mo., USA). Significant difference between groups (comparing drug-treated to vehicle-treated) was evaluated using the Student unpaired t-test.
The following table summarizes the anti-diabetic effects of selected compounds of the present invention and provides their relative potency. […] For example, a compound at 25 mg/kg that lowered the animal glucose level from 400 mg/dL (vehicle group value) to 250 mg/dL, is assigned the potency of +++.

cytochrome P450 2C9 = cytochrome P450 2C9 (Homo sapiens, UniProt P11712); details: comparison of enantiomers and racemate; cited from earlier work
Chain of cytochrome P450 2C9 (P11712 whole entry): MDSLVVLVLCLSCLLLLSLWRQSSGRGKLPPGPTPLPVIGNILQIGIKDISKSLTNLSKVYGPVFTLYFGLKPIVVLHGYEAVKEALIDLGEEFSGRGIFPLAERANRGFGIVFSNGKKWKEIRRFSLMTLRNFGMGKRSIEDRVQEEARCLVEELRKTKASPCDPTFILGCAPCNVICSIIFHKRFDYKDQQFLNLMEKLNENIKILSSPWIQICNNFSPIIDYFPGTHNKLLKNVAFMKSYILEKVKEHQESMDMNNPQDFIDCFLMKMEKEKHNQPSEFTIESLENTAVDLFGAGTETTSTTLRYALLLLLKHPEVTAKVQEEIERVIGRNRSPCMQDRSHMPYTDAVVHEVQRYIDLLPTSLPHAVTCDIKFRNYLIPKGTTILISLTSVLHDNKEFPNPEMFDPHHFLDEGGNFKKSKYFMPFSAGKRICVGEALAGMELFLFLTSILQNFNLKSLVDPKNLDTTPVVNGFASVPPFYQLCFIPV

| SMILES | Insulin Level compared with vehicle (C57BL/6j ob/ob Mice [1]) | Potency (C57BL/6j ob/ob Mice [2]) | Insulin Level compared with vehicle (C57BL/6j ob/ob Mice [2]) | further results |
| --- | --- | --- | --- | --- |
| O=C(O)C(Oc1cc(C(F)(F)F)cc(C(F)(F)F)c1)c1ccc(C(F)(F)F)cc1 (stereo not drawn) [Compound 81] | Lower |  |  |  |
| O=C(O)C(Oc1ccc(C(F)(F)F)cc1-c1nc2ccccc2o1)c1ccc(Cl)cc1 (stereo not drawn) [Compound I-372] |  | +++ (effective for glucose lowering at a dose of ≦25 mg/kg) | Lower |  |
| O=C(O)C(Oc1cccc(C(F)(F)F)c1)c1ccc(Cl)cc1 (single isomer, unassigned; (+)) [(+) enantiomer of halofenic acid, (+) 4-chlorophenyl-(3-trifluoromethylphenoxy)-acetic acid] |  |  |  | inhibition of cytochrome P450 2C9 (cytochrome P450 2C9): quite potent |
| O=C(O)C(Oc1ccc(C(F)(F)F)cc1)c1cccc(C(F)(F)F)c1 (stereo not drawn) [(−)−39, (4-trifluoromethyl-phenoxy)-(3-trifluoromethyl-phenyl)-acetic acid] | Lower |  |  | Potency (C57BL/6j ob/ob Mice [1]): ++ (effective for glucose lowering at the dose of ≦125 mg/kg) |
| CC(Oc1ccc(C(F)(F)F)cc1)(C(=O)O)c1cccc(C(F)(F)F)c1 (stereo not drawn) [Compound 120, 2-(4-trifluoromethyl-phenoxy)-2-(3-trifluoromethyl-phenyl)-propionic acid] | Lower |  |  |  |
| CC(=O)NCCOC(=O)C(Oc1cccc(C(F)(F)F)c1)c1cccc(C(F)(F)F)c1 (stereo not drawn) [Compound 144] | Lower |  |  |  |
| OCC(Oc1ccc(C(F)(F)F)cc1)c1ccc(C(F)(F)F)cc1 (stereo not drawn) [Compound 128] | Lower |  |  | Potency (C57BL/6j ob/ob Mice [1]): ++ (effective for glucose lowering at the dose of ≦125 mg/kg) |
| O=C(O)C(Oc1ccccc1-c1nc2ccccc2o1)c1ccc(Cl)cc1 (stereo not drawn) [Compound I-1] |  | ++ (effective for glucose lowering at a dose of >25 mg/kg but <125 mg/kg) | Lower |  |
| O=C(O)C(Oc1ccc(C(F)(F)F)cc1Cl)c1ccc(C(F)(F)F)cc1 (stereo not drawn) [Compound 89] | Lower |  |  | Potency (C57BL/6j ob/ob Mice [1]): ++ (effective for glucose lowering at the dose of ≦125 mg/kg) |
| O=C(O)C(Oc1cccc(C(F)(F)F)c1)c1ccc(C(F)(F)F)cc1 (stereo not drawn) [Compound 86] | Lower |  |  |  |
| O=C(O)C(Oc1ccc(Cl)cc1-c1nc2ccccc2o1)c1cccc(Cl)c1 (stereo not drawn) [Compound I-194] |  | +++ (effective for glucose lowering at a dose of ≦25 mg/kg) | Lower |  |
| O=C(O)C(Oc1ccc(C(F)(F)F)cc1-c1nc2ccccc2o1)c1ccccc1 (stereo not drawn) [Compound I-369] |  | +++ (effective for glucose lowering at a dose of ≦25 mg/kg) | Lower |  |
| O=C(O)C(Oc1ccccc1-c1nc2ccccc2o1)c1cccc(C(F)(F)F)c1 (stereo not drawn) [Compound I-3] |  | + (effective for glucose lowering at the dose of ≧125 mg/kg) | Lower |  |
| O=C(O)C(Oc1ccc(C(F)(F)F)cc1)c1ccc(C(F)(F)F)cc1 (stereo not drawn) [Compound 83] | Lower |  |  | Potency (C57BL/6j ob/ob Mice [1]): ++ (effective for glucose lowering at the dose of ≦125 mg/kg) |
| O=C(O)C(Oc1ccc(C(F)(F)F)cc1-c1nc2ccccc2o1)c1cccc(C(F)(F)F)c1 (stereo not drawn) [Compound I-89] |  | +++ (effective for glucose lowering at a dose of ≦25 mg/kg) | Lower |  |
| O=C(O)C(Oc1ccc(C(F)(F)F)cc1)c1cccc(C(F)(F)F)c1 (stereo not drawn) [(+)−39, (4-trifluoromethyl-phenoxy)-(3-trifluoromethyl-phenyl)-acetic acid] |  |  |  | minimal effective dose (C57BL/6j ob/ob Mice [1]): ≤ 125 mg/kg |

| SMILES | Insulin Level compared with vehicle (C57BL/6j ob/ob Mice [1]) | Potency (C57BL/6j ob/ob Mice [2]) | Insulin Level compared with vehicle (C57BL/6j ob/ob Mice [2]) | further results |
| --- | --- | --- | --- | --- |
| O=C(O)C(Oc1ccc(Cl)cc1-c1nc2ccccc2o1)c1cccc(C(F)(F)F)c1 (stereo not drawn) [Compound I-191] |  | +++ (effective for glucose lowering at a dose of ≦25 mg/kg) | Lower |  |
| O=C(O)C(Oc1cccc(C(F)(F)F)c1)c1ccc(Cl)cc1 (racemic) [racemic halofenic acid, 4-Chlorophenyl-(3-trifluoromethylphenoxy)-acetic Acid] |  |  |  | inhibition of cytochrome P450 2C9 (cytochrome P450 2C9): found to inhibit cytochrome P450 2C9 |
| CC(Oc1ccc(C(F)(F)F)cc1-c1nc2ccccc2o1)(C(=O)O)c1ccccc1 (stereo not drawn) [Ia-366] |  | +++ (effective for glucose lowering at a dose of ≦25 mg/kg) |  |  |
| O=C(O)C(Oc1ccc(C(F)(F)F)cc1)c1cccc(C(F)(F)F)c1 (racemic) [Compound 39, (4-trifluoromethyl-phenoxy)-(3-trifluoromethyl-phenyl)-acetic acid] | Lower |  |  | minimal effective dose (C57BL/6j ob/ob Mice [1]): ≤ 125 mg/kg |
| O=C(O)C(Oc1ccc(Cl)cc1-c1nc2ccccc2o1)c1ccc(Cl)cc1 (stereo not drawn) [Compound I-190] |  | +++ (effective for glucose lowering at a dose of ≦25 mg/kg) | Lower |  |
| CC(=O)NCCOC(=O)C(Oc1cc(C(F)(F)F)cc(C(F)(F)F)c1)c1ccc(C(F)(F)F)cc1 (stereo not drawn) [Compound 143] | Lower |  |  |  |
| CC(Oc1ccc(C(F)(F)F)cc1)(C(=O)O)c1ccc(C(F)(F)F)cc1 (stereo not drawn) [Compound 121, 2-(4-Trifluoromethyl-phenoxy)-2-(4-trifluoromethyl-phenyl)-propionic acid] | Lower |  |  |  |
| O=C(O)C(Oc1ccc(C(F)(F)F)cn1)c1cccc(C(F)(F)F)c1 (stereo not drawn) [Compound 100, (3-Trifluoromethyl-phenyl)-(5-trifluoromethyl-pyridin-2-yloxy)-acetic acid] | Lower |  |  |  |
| CC(=O)NCCOC(=O)C(Oc1ccc(C(F)(F)F)cc1)c1cccc(C(F)(F)F)c1 (stereo not drawn) [Compound 136, (4-trifluoromethyl-phenoxy)-(3-trifluoromethyl-phenyl)-acetic acid 2-acetylamino-ethyl ester] | Lower |  |  |  |
| O=C(O)C(Oc1ccc(C(F)(F)F)cc1Cl)c1cccc(C(F)(F)F)c1 (stereo not drawn) [Compound 85] | Lower |  |  | Potency (C57BL/6j ob/ob Mice [1]): ++ (effective for glucose lowering at the dose of ≦125 mg/kg) |
| CC(=O)NCCOC(=O)C(Oc1cccc(C(F)(F)F)c1)c1ccccc1C(F)(F)F (stereo not drawn) [Compound 147] | Lower |  |  |  |
| CC(=O)NCCOC(=O)C(Oc1ccccc1C(F)(F)F)c1ccc(C(F)(F)F)cc1 (stereo not drawn) [Compound 146] | Lower |  |  |  |
| COc1ccc(C(Oc2ccc(Cl)cc2-c2nc3ccccc3o2)C(=O)O)cc1 (stereo not drawn) [Compound I-193] |  | +++ (effective for glucose lowering at a dose of ≦25 mg/kg) | Lower |  |
| CC(=O)NCCOC(=O)C(Oc1ccc(C(F)(F)F)cc1)c1ccc(C(F)(F)F)cc1 (stereo not drawn) [Compound 145] | Lower |  |  |  |
| CC(Oc1ccc(C(F)(F)F)cc1-c1nc2ccccc2o1)(C(=O)O)c1ccccc1 (stereo not drawn) [Ia-365] |  | +++ (effective for glucose lowering at a dose of ≦25 mg/kg) | Lower |  |
| CC(=O)NCCOC(=O)C(Oc1cccc(C(F)(F)F)c1)c1ccc(C(F)(F)F)cc1 (stereo not drawn) [Compound 142] | Lower |  |  |  |
